What was measured:
[1] = test system: human colon carcinoma xenograft HCT116; assay: Imaging response to PD0325901 treatment by [18F]D4-FCH-PET; format: in vivo, mice
Experimental: Size-matched HCT116 tumor bearing mice were randomized to receive daily treatment by oral gavage of vehicle (0.5% hydroxypropyl methylcellulose+0.2% Tween 80) or 25 mg/kg (0.005 mL/g mouse) of the mitogenic extracellular kinase inhibitor, PD0325901, prepared in vehicle. [^18F]D4-FCH-PET scanning was done after 10 daily treatments with the last dose administered 1 h before scanning. […] The results are illustrated in FIGS. 18 and 19.
These studies were performed in a reproducible tumor model system in which treatment outcomes had been previously characterized, i.e., the human colon carcinoma xenograft HCT116 treated with PD0325901 daily for 10 days (Leyton, J., et al., “Noninvasive imaging of cell proliferation following mitogenic extracellular kinase inhibition by PD0325901”, Mol Cancer Ther 2008; 7(9):3112-21). […] All imaging variables decreased after 10 days of drug treatment (P=0.05, FIG. 18). […] To understand the biomarker changes, the intrinsic cellular effect of PD0325901 on D4-FCH-phosphocholine formation was examined by treating exponentially growing HCT116 cells in culture with PD0325901 for 24 h and measuring the 60-min uptake of [^18F]D4-FCH in vitro.

CHKA = CHKA expression in exponentially growing cells treated with PD0325901; format: cell-based
choline oxidase = biological target: T1, choline oxidase (Arthrobacter globiformis, UniProt Q7X2H8); assay: Enzymatic oxidation study using choline oxidase; conditions: 60 minute time point, room temperature
T1 sequence (Q7X2H8 1-546): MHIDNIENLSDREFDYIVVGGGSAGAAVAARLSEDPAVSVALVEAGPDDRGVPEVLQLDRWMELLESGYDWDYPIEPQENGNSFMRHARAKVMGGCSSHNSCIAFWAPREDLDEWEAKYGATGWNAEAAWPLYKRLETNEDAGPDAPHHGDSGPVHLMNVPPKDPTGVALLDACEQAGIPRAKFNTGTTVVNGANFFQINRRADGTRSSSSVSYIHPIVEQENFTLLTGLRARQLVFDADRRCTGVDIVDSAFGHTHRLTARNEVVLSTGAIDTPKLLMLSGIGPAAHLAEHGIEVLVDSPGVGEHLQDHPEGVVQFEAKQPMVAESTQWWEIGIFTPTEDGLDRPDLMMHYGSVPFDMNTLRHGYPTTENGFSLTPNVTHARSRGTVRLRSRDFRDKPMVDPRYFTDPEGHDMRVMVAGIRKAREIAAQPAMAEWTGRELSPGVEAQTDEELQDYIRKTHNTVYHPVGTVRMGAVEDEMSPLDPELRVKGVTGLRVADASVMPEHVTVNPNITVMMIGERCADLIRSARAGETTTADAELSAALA
Experimental: [^18F]fluoromethylcholine and [^18F]fluoromethyl-[1,2-^2H4]choline were evaluated in a choline oxidase model (Roivainen, A., et al., European Journal of Nuclear Medicine 2000; 27:25-32).
An aliquot of either [^18F]Fluoromethylcholine or [^18F]fluoromethyl-[1,2-^2H4]choline [^18F](100 μL, ˜3.7 MBq) was added to a vial containing water (1.9 mL) to give a stock solution. Sodium phosphate buffer (0.1 M, pH 7) (10 uL) containing choline oxidase (0.05 units/uL) was added to an aliquot of stock solution (190 uL) and the vial was then left to stand at room temperature, with occasional agitation. At selected time-points (5, 20, 40 and 60 minutes) the sample was diluted with HPLC mobile phase (buffer A, 1.1 mL), filtered (0.22 μm filter) and then ˜1 mL injected via a 1 mL sample loop onto the HPLC for analysis. Chromatographic separation was performed on a Waters C18 Bondapak (7.8×300 mm) column (Waters, Milford, Mass., USA) at 3 mL/min with a mobile phase of buffer A, which contained acetonitrile, ethanol, acetic acid, 1.0 mol/L ammonium acetate, water, and 0.1 mol/L sodium phosphate (800:68:2:3:127:10 [v/v]) and buffer B, which contained the same constituents but in different proportions (400:68:44:88:400:10 [v/v]). The gradient program comprised 100% buffer A for 6 minutes, 0-100% buffer B for 10 minutes, 100-0% B in 2 minutes then 0% B for 2 minutes.

[2] = mouse, in vivo
Experimental: [^18F]FCH or [^18F](D4-FCH) (80-100 μCi) was injected via the tail vein into anesthetized non-tumor bearing C3H-Hej mice; isofluorane/O2/N2O anesthesia was used. Plasma samples obtained at 2, 15, 30 and 60 minutes after injection were snap frozen in liquid nitrogen and stored at −80° C. For analysis, samples were thawed and kept at 4° C. To approximately 0.2 mL of plasma was added ice-cold acetonitrile (1.5 mL). The mixture was then centrifuged (3 minutes, 15,493×g; 4° C.). The supernatant was evaporated to dryness using a rotary evaporator (Heidoloph Instruments GMBH & C0, Schwabach, Germany) at a bath temperature of 45° C. The residue was suspended in mobile phase (1.1 mL), clarified (0.2 μm filter) and analyzed by HPLC. […] All samples were analyzed on an Agilent 1100 series HPLC system equipped with a γ-RAM Model 3 radio-detector (IN/US Systems inc., FL, USA). The analysis was based on the method of Roivannen (Roivainen, A., et al., European Journal of Nuclear Medicine 2000; 27:25-32) using a Phenomenex Luna SCX column (10μ, 250×4.6 mm) and a mobile phase comprising of 0.25 M sodium dihydrogen phosphate (pH 4.8) and acetonitrile (90:10 v/v) delivered at a flow rate of 2 ml/min.

[3] = test system: human melanoma SKMEL-28 xenografts; conditions: mouse, in vivo
Experimental: Dynamic [^18F]FCH and [^18F]D4-FCH imaging scans were carried out on a dedicated small animal PET scanner, quad-HIDAC (Oxford Positron Systems). The features of this instrument have been described previously (Barthel, H., et al., Cancer Res 2003; 63(13):3791-8). For scanning the tail veins, vehicle- or drug-treated mice were cannulated after induction of anesthesia (isofluorane/O2/N2O). The animals were placed within a thermostatically controlled jig (calibrated to provide a rectal temperature of ˜37° C.) and positioned prone in the scanner. [^18F]FCH or [^18F]D4-FCH (2.96-3.7 MBq) was injected via the tail vein cannula and scanning commenced. Dynamic scans were acquired in list mode format over a 60 min period as reported previously (Leyton, J., et al., Cancer Research 2006; 66(15):7621-9). […] Dynamic data from these slices were averaged for each tissue (liver, kidney, muscle, urine, and tumor) and at each of the 19 time points to obtain time versus radioactivity curves. Corresponding whole body time versus radioactivity curves representing injected radioactivity were obtained by adding together radioactivity in all 200×160×160 reconstructed voxels. Tumor radioactivity was normalized to whole-body radioactivity and expressed as percent injected dose per voxel (% ID/vox). […] The area under the curve was calculated as the integral of % ID/vox from 0 to 60 min.

[4] = 20 min
From the text: The effect of deuterium substitution on bond strength was initially tested by evaluation of the chemical oxidation pattern of [^18F]fluoromethylcholine and [^18F]Fluoromethyl-[1,2-^2H4]choline using potassium permanganate.

[5] = test system: HCT116 human colon xenografts; conditions: mouse, in vivo
Experimental: Time course biodistribution was carried out for [^18F]fluoromethylcholine, [^18F]fluoromethyl-[1-^2H2]choline and [^18F]fluoromethyl-[1,2-^2H4]choline in nude mice bearing HCT116 human colon xenografts.
Human colon (HCT116) tumors were grown in male C3H-Hej mice (Harlan, Bicester, United Kingdom) as previously reported (Leyton, J., et al., Cancer Research 2005; 65(10):4202-10). Tumor dimensions were measured continuously using a caliper and tumor volumes were calculated by the equation: volume=(π/6)×a×b×c, where a, b, and c represent three orthogonal axes of the tumor. Mice were used when their tumors reached approximately 100 mm^3. […] The mice were sacrificed at pre-determined time points (2, 30 and 60 min) after radiotracer injection under terminal anesthesia to obtain blood, plasma, tumor, heart, lung, liver, kidney and muscle. Tissue radioactivity was determined on a gamma counter (Cobra II Auto-Gamma counter, Packard Biosciences Co, Pangbourne, UK) and decay corrected. Data were expressed as percent injected dose per gram of tissue.

Row | Structure (SMILES) | [18F]D4-FCH radiotracer retention in treated tumors ([1]; 25 mg/kg daily for 10 days, versus vehicle) | imaging variables (% ID/vox60, % ID/vox60max, AUC) ([1]; after 10 days of drug treatment, [18F]D4-FCH-PET) | CHKA expression in vitro (CHKA) | parent radiotracer present (radio-HPLC distribution of choline species) (choline oxidase) | percentage of parent compound in plasma [2] | % IDvox60max (average of the maximum pixel % ID/vox60 across 5 slices) [3] | proportion of the parent compound remaining [4] | tumor uptake (localization of radiotracer) [5]
1 | O=C(NOC[C@H](O)CO)c1ccc(F)c(F)c1Nc1ccc(I)cc1F [PD0325901] | marked reduction in radiotracer retention | decreased | reduction | – | – | – | – | –
2 | [2H]C([2H])(O)C([2H])([2H])[N+](C)(C)C[18F] [[^18F]D4-FCH, [^18F]fluoromethyl-[1,2-^2H4]-choline] | – | – | – | 29±4% | consistently higher | significantly higher | greater proportion of the parent compound remaining | pronounced increase in tumor uptake
3 | C[N+](C)(C[18F])CCO [[^18F]FCH, [^18F]Fluoromethylcholine, reference compound] | – | – | – | 11±8% | – | – | – | –

Reference: patent publication US20130202530A1, “NOVEL RADIOTRACER” (IMPERIAL COLLEGE, priority 2010, published 2013)
